Test results from ChEMBL document CHEMBL1201862, “PubChem BioAssay data set” (2004).
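48-hour exposure; five concentrations; linearly interpolated endpoints. GI50: concentration for 50% inhibition of growth.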 Active and inactive are the calls of the source. No stated cut-off is given here; in the data, active = GI50 up to about 1.1 µM and inactive = higher.

Tests used:
Test in all cases: NCI tumour cell line growth inhibition, 48 h
[1] = system: UACC-62
[2] = system: NCI/ADR-RES
[3] = system: OVCAR-4
[4] = system: A549
[5] = system: MDA-MB-435
[6] = system: MOLT-4
[7] = system: HCT-116
[8] = system: MCF7
[9] = system: UACC-257
[10] = system: SK-MEL-5
[11] = system: CAKI-1
[12] = system: SR
[13] = system: OVCAR-5
[14] = system: COLO 205
[15] = system: LOX IMVI
[16] = system: SK-MEL-2
[17] = system: DU-145
[18] = system: OVCAR-8
[19] = system: RPMI-8226
[20] = system: HCC 2998

Measured: GI50

O=C(O)c1cc(CCc2cc(O)ccc2O)ccc1O
inactive: [1] > 100 µM | [2] > 100 µM | [3] > 100 µM | [4] > 100 µM | [5] > 100 µM | [6] 56.6 µM | [7] > 100 µM | [8] > 100 µM | [9] > 100 µM | [10] > 100 µM | [11] > 100 µM | [12] > 100 µM | [13] > 100 µM | [14] > 100 µM | [15] 32.1 µM | [16] > 100 µM | [17] > 100 µM | [18] > 100 µM | [19] > 100 µM

COc1ccc(N2C(=O)C3ON(C(C(N)=O)c4ccccc4)C(c4ccc(-c5ccccc5)cc4)C3C2=O)cc1 (stereo not given)
inactive: [1] > 50 µM | [2] > 50 µM | [3] > 50 µM | [4] > 50 µM | [5] > 50 µM | [6] > 50 µM | [7] > 50 µM | [8] 31.3 µM | [9] > 50 µM | [11] > 50 µM | [12] > 50 µM | [13] > 50 µM | [14] 25.2 µM | [15] 36.5 µM | [16] > 50 µM | [17] > 50 µM | [18] > 50 µM | [19] 16.8 µM

CCOC(=O)C(C)c1nc2cc(N3CCN(C)CC3)c(F)cc2[nH]c1=O (stereo not given)
inactive: [1] > 100 µM | [2] > 100 µM | [3] > 100 µM | [4] > 100 µM | [5] > 100 µM | [6] > 100 µM | [7] > 100 µM | [8] > 100 µM | [9] > 100 µM | [10] > 100 µM | [11] > 100 µM | [12] > 100 µM | [13] > 100 µM | [14] > 100 µM | [16] > 100 µM | [17] > 100 µM | [18] > 100 µM | [19] > 100 µM

Cc1ccc(S(=O)(=O)c2ccsc2NC(=O)C(F)(F)F)cc1
inactive: [1] 35.7 µM | [2] 31.7 µM | [3] 20.6 µM | [4] 34 µM | [5] 44.5 µM | [6] 18.5 µM | [7] 28.6 µM | [8] 44.8 µM | [9] 30.3 µM | [10] 20.2 µM | [11] 34.9 µM | [20] 29 µM | [13] 50.1 µM | [14] 10.8 µM | [15] 28.2 µM | [16] 26.3 µM | [17] 42.6 µM | [18] 31.8 µM | [19] 8.02 µM

CCOC(=O)Cn1nc2ccc(Nc3c(C)[n+]([O-])c4cc(F)c(OCC)cc4[n+]3[O-])cc2n1
inactive: [2] > 100 µM | [3] > 100 µM | [5] > 100 µM | [6] > 100 µM | [7] > 100 µM | [8] > 100 µM | [9] > 100 µM | [10] > 100 µM | [11] > 100 µM | [12] > 100 µM | [13] > 100 µM | [15] > 100 µM | [16] 16.8 µM | [17] > 100 µM | [18] > 100 µM | [19] > 100 µM

CC(C)(C)C1=NC(=P(c2ccccc2)(c2ccccc2)c2ccccc2)C(=O)O1
inactive: [1] > 100 µM | [2] > 100 µM | [4] > 100 µM | [5] > 100 µM | [6] > 100 µM | [7] > 100 µM | [8] > 100 µM | [9] > 100 µM | [10] > 100 µM | [11] > 100 µM | [12] > 100 µM | [13] > 100 µM | [14] > 100 µM | [15] > 100 µM | [16] > 100 µM | [17] > 100 µM | [18] > 100 µM | [19] > 100 µM

CC(=C/C=C/C=C(C)\C=C\C=C(\C)C(=O)O)/C=C/C=C(/C)C(=O)O
inactive: [1] > 100 µM | [2] > 100 µM | [3] > 100 µM | [4] > 100 µM | [5] > 100 µM | [6] > 100 µM | [7] > 100 µM | [8] > 100 µM | [9] > 100 µM | [10] > 100 µM | [11] > 100 µM | [12] > 100 µM | [13] > 100 µM | [14] > 100 µM | [15] > 100 µM | [16] > 100 µM | [17] > 100 µM | [18] > 100 µM | [19] > 100 µM

CCN1CCc2sc3nc(S)n(C)c(=O)c3c2C1
inactive: [1] > 100 µM | [2] > 100 µM | [3] > 100 µM | [4] > 100 µM | [5] > 100 µM | [6] > 100 µM | [7] > 100 µM | [8] > 100 µM | [9] > 100 µM | [10] > 100 µM | [11] > 100 µM | [20] > 100 µM | [13] > 100 µM | [14] > 100 µM | [15] > 100 µM | [16] > 100 µM | [17] > 100 µM | [18] > 100 µM | [19] > 100 µM

O=C(CCc1ccccc1)ON1C(=S)NC(c2ccccc2)(c2ccccc2)C1=S
inactive: [1] 33.9 µM | [2] 28.5 µM | [3] 33.7 µM | [4] 37.5 µM | [5] 36.9 µM | [6] 32.3 µM | [7] 23.7 µM | [8] 32.9 µM | [9] 36.5 µM | [10] 19.5 µM | [11] 33.7 µM | [20] 29.4 µM | [13] 61.4 µM | [14] 40.2 µM | [15] 21.1 µM | [16] 20.2 µM | [17] 68.1 µM | [18] 31.2 µM | [19] 29.1 µM

CCOC(OCC)[C@H](N)[C@@H](O)[C@@H](O)[C@H]1COC(C)(C)O1
inactive: [1] > 100 µM | [2] > 100 µM | [3] > 100 µM | [4] > 100 µM | [5] > 100 µM | [6] > 100 µM | [7] > 100 µM | [8] > 100 µM | [9] > 100 µM | [10] > 100 µM | [12] > 100 µM | [13] > 100 µM | [14] > 100 µM | [15] > 100 µM | [16] > 100 µM | [17] > 100 µM | [18] > 100 µM | [19] > 100 µM

O=C(O)Cn1ccc(=O)c2cc([N+](=O)[O-])ccc21
inactive: [1] > 100 µM | [2] > 100 µM | [4] > 100 µM | [5] > 100 µM | [6] > 100 µM | [7] > 100 µM | [8] > 100 µM | [9] > 100 µM | [10] > 100 µM | [11] > 100 µM | [12] > 100 µM | [20] > 100 µM | [13] > 100 µM | [14] 48.8 µM | [16] > 100 µM | [17] 38.1 µM | [18] > 100 µM
